# Experimental data reported in patent US9908831B2, “Resist composition, method for forming resist pattern, polyphenolic compound for use in the composition, and alcoholic compound that can be derived therefrom” (Mitsubishi Gas Chemical Company, Inc., priority 2011, dated 2018).
# Experiments:
# Type in all cases: physicochemical
# [1] = Thermal decomposition temperature by DSC; settings: 10° C./min to 500° C., nitrogen gas stream
# Method: (3) Thermal Decomposition Temperature
# The apparatus EXSTAR6000DSC (trade name) manufactured by SII NanoTechnology Inc. was used. About 5 mg of each sample was placed in a non-sealed container made of aluminum, and the temperature was raised to 500° C. at the rate of temperature rise of 10° C./min in a nitrogen gas stream (30 mL/min). The temperature corresponding to a descending peak appeared in the baseline was defined as the thermal decomposition temperature.
# [2] = Glass transition temperature by DSC; settings: 10° C./min to 300° C., second heating after quench, nitrogen gas stream
# Method: (4) Glass Transition Temperature
# The apparatus EXSTAR6000DSC (trade name) manufactured by SII NanoTechnology Inc. was used. About 5 mg of each sample was placed in a non-sealed container made of aluminum, and the temperature was raised to 300° C. at the rate of temperature rise of 10° C./min in a nitrogen gas stream (30 mL/min). After the non-sealed container made of aluminum was quenched, again the temperature was raised to 300° C. at the rate of temperature rise of 10° C./min in a nitrogen gas stream (30 mL/min), thereby performing DSC measurement. The temperature corresponding to the middle point (where the specific heat was changed into the half) of a region in which a discontinuous portion appeared in the baseline was defined as the glass transition point.
# [3] = Solubility of compound in methyl ethyl ketone (MEK); settings: dissolution amount in MEK at 23° C., visual
# Method: (1) Solubility of Compound in Methyl Ethyl Ketone (MEK)
# (§1) The solubility of the compound in MEK was evaluated according to the following standard using the dissolution amount in MEK at 23° C. For the measurement of the dissolution amount, the compound was precisely weighed in a test tube at 23° C.; and the target solvent was added to the compound so that a predetermined concentration of the liquid to be obtained was set; a ultrasonic wave was applied to the liquid in an ultrasonic washing machine for 30 minutes; and the state of the resulting liquid was visually evaluated.
# Evaluation A: 50% by weight or more
# Evaluation B: 10% by weigh or more and less than 50% by weight
# Evaluation C: less than 10% by weight
# [4] = Solubility test of compound in safe solvent; settings: 23° C., visual
# Method: (2) Solubility Test of Compound in Safe Solvent
# as §1, with “PGME and PGMEA” for “MEK”, “each solvent.” for “MEK at 23° C.”
# A: 5.0% by weight≦dissolution amount
# B: 3.0% by weight≦dissolution amount<5.0% by weight
# C: dissolution amount<3.0% by weight
thermal decomposition temperature [1] [°C],glass transition point [2] [°C],Solubility test of compound in safe solvent PGME [4],Solubility test of compound in safe solvent PGMEA [4],SMILES,solubility in MEK [3]
250,130,A (A: 5.0% by weight≦dissolution amount),A (A: 5.0% by weight≦dissolution amount),Oc1ccc2c(O)cccc2c1C(c1ccc(-c2ccccc2)cc1)c1c(O)ccc2c(O)cccc12 [BisN-4],B (Evaluation B: 10% by weigh or more and less than 50% by weight)
250,130,A (A: 5.0% by weight≦dissolution amount),A (A: 5.0% by weight≦dissolution amount),Oc1cccc2c(O)c(C(c3ccc(-c4ccccc4)cc3)c3ccc4c(O)cccc4c3O)ccc12 [BisN-3],B (Evaluation B: 10% by weigh or more and less than 50% by weight)
400,140,A (A: 5.0% by weight≦dissolution amount),A (A: 5.0% by weight≦dissolution amount),Oc1ccc2c3c(ccc2c1)Oc1ccc2cc(O)ccc2c1C31CCCCC1 [XBisN-10],B (Evaluation B: 10% by weigh or more and less than 50% by weight)
250,135,A (A: 5.0% by weight≦dissolution amount),A (A: 5.0% by weight≦dissolution amount),Oc1ccc2c(C3(c4c(O)ccc5cc(O)ccc45)c4ccccc4-c4ccccc43)c(O)ccc2c1 [BisN-11],B (Evaluation B: 10% by weigh or more and less than 50% by weight)
410,152,A (A: 5.0% by weight≦dissolution amount),A (A: 5.0% by weight≦dissolution amount),Oc1cccc2c3c(ccc12)C(c1ccc(-c2ccccc2)cc1)c1ccc2c(O)cccc2c1O3 [XBisN-3],B (Evaluation B: 10% by weigh or more and less than 50% by weight)
410,152,A (A: 5.0% by weight≦dissolution amount),A (A: 5.0% by weight≦dissolution amount),Oc1cc2ccccc2c2c1Oc1c(O)cc3ccccc3c1C2c1ccc(-c2ccccc2)cc1 [XBisN-6],B (Evaluation B: 10% by weigh or more and less than 50% by weight)
255,135,A (A: 5.0% by weight≦dissolution amount),A (A: 5.0% by weight≦dissolution amount),Oc1ccc2c(C(c3cccc4ccccc34)c3c(O)ccc4cc(O)ccc34)c(O)ccc2c1 [BisN-7],B (Evaluation B: 10% by weigh or more and less than 50% by weight)
245,130,A (A: 5.0% by weight≦dissolution amount),A (A: 5.0% by weight≦dissolution amount),Oc1ccc2c(C(c3cc(C(c4c(O)ccc5cc(O)ccc45)c4c(O)ccc5cc(O)ccc45)cc(C(c4c(O)ccc5cc(O)ccc45)c4c(O)ccc5cc(O)ccc45)c3)c3c(O)ccc4cc(O)ccc34)c(O)ccc2c1 [BisN-14],B (Evaluation B: 10% by weigh or more and less than 50% by weight)
410,152,A (A: 5.0% by weight≦dissolution amount),A (A: 5.0% by weight≦dissolution amount),Oc1ccc2c3c(ccc2c1)Oc1ccc2cc(O)ccc2c1C3c1ccc(C2c3c(ccc4cc(O)ccc34)Oc3ccc4cc(O)ccc4c32)cc1 [XBisN-12],B (Evaluation B: 10% by weigh or more and less than 50% by weight)
410,152,A (A: 5.0% by weight≦dissolution amount),A (A: 5.0% by weight≦dissolution amount),Oc1ccc2c3c(ccc2c1)Oc1ccc2cc(O)ccc2c1C3c1cc(C2c3c(ccc4cc(O)ccc34)Oc3ccc4cc(O)ccc4c32)cc(C2c3c(ccc4cc(O)ccc34)Oc3ccc4cc(O)ccc4c32)c1 [XBisN-14],B (Evaluation B: 10% by weigh or more and less than 50% by weight)

SMILES,thermal decomposition temperature [1] [°C],glass transition point [2] [°C],Solubility test of compound in safe solvent PGME [4],Solubility test of compound in safe solvent PGMEA [4],solubility in MEK [3]
Oc1ccc2c(C(c3c(O)ccc4cc(O)ccc34)c3ccc4ccc5cccc6ccc3c4c56)c(O)ccc2c1 [BisN-9],260,140,A (A: 5.0% by weight≦dissolution amount),A (A: 5.0% by weight≦dissolution amount),B (Evaluation B: 10% by weigh or more and less than 50% by weight)
